Reference: patent US11053204B2, “Pyrimidinyloxy benzene derivatives as herbicides” (FMC Corporation, priority 2015, dated 2021)

Legend:
Type in all cases: in vivo
[1] = system: oilseed rape (Brassica napus); test: Test C postemergence, plant response rating; details: for Oilseed Rape plant response rating: scale 0 to 100 (0 no effect, 100 complete control)
Method in brief: (§1)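 Greenhouse plants rated visually against untreated controls 13–15 d after treatment, scale 0 = no effect to 100 = complete control. Postemergence sprays went onto potted plants 2–18 cm tall (1–4 leaves); preemergence sprays onto soil freshly sown in loam–sand or silt loam, chemicals formulated in non-phytotoxic solvent with surfactant.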

[2] = system: nutsedge, yellow (yellow nutsedge, Cyperus esculentus); test: Test C postemergence, plant response rating; details: for Nutsedge, Yellow plant response rating: scale 0 to 100 (0 no effect, 100 complete control)
Method in brief: as §1

[3] = system: barnyardgrass (Echinochloa crus-galli); test: Test C postemergence, plant response rating; details: for Plant response rating, Barnyardgrass: scale 0 to 100; for Barnyardgrass plant response rating: scale 0 to 100 (0 no effect, 100 complete control)
Method in brief: as §1

[4] = system: blackgrass (Alopecurus myosuroides); test: Test C postemergence, plant response rating; details: for Plant response rating, Blackgrass: scale 0 to 100; for Blackgrass plant response rating: scale 0 to 100 (0 no effect, 100 complete control)
Method in brief: as §1

[5] = system: crabgrass, large (large crabgrass, Digitaria sanguinalis); test: Test C postemergence, plant response rating; details: for Crabgrass, Large plant response rating: scale 0 to 100 (0 no effect, 100 complete control)
Method in brief: as §1

kochia (Kochia scoparia) [6] = test: Test C postemergence, plant response rating; details: for Kochia plant response rating: scale 0 to 100 (0 no effect, 100 complete control)
Method in brief: as §1

[7] = system: galium (catchweed bedstraw, Galium aparine); test: Test C postemergence, plant response rating; details: for Galium plant response rating: scale 0 to 100 (0 no effect, 100 complete control)
Method in brief: as §1

[8] = system: morningglory (Ipomoea coccinea); test: Test C postemergence, plant response rating; details: for Morningglory plant response rating: scale 0 to 100 (0 no effect, 100 complete control)
Method in brief: as §1

[9] = system: wheat (winter wheat, Triticum aestivum); test: Test C postemergence, plant response rating
Method in brief: as §1

corn (Zea mays) = test: Test C postemergence, plant response rating; details: for Corn plant response rating: scale 0 to 100 (0 no effect, 100 complete control)
Method in brief: as §1

[10] = system: barnyardgrass (Echinochloa crus-galli); test: Test B flooded paddy test, plant response rating; details: 250 g ai/ha; Flood; scale of 0 to 100 where 0 is no effect and 100 is complete control; 13 to 15 days
Method in brief: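 Flooded 3 cm over soil; compound into paddy water; depth kept constant. Greenhouse 13–15 d.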

[11] = system: pigweed (Amaranthus retroflexus); test: Test A preemergence, visual injury rating
Method in brief: (§2)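 Compounds in non-phytotoxic solvent with surfactant applied as soil spray preemergence, or postemergence to plants 2-10 cm at one- to two-leaf stage, in loam/sand. After approximately 10 days in greenhouse, injury rated visually versus untreated controls, 0 (no effect) to 100 (complete control).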

[12] = system: barnyardgrass (Echinochloa crus-galli); test: Test A preemergence, visual injury rating
Method in brief: as §2

kochia (Kochia scoparia) [13] = test: Test A preemergence, visual injury rating
Method in brief: as §2

[14] = system: ragweed (common ragweed, Ambrosia elatior); test: Test A preemergence, visual injury rating
Method in brief: as §2

[15] = system: giant foxtail (Setaria faberii); test: Test A preemergence, visual injury rating
Method in brief: as §2

[16] = system: Italian ryegrass (Lolium multiflorum); test: Test A preemergence, visual injury rating
Method in brief: as §2

[17] = 31 g ai/ha, 0 to 100 scale, 0 no effect, 100 complete control
[18] = 125 g ai/ha, 0 to 100 scale (0 no effect, 100 complete control)

**Q.** With `O=C(CCCCC(F)(F)F)c1c(Br)cccc1Oc1ncc(Cl)cn1` [Compound 82] as the compound, how does the “Plant response rating, Oilseed Rape” value ([1]; 16 g ai/ha, scale of 0 to 100) read?
**A.** The value was 70.

**Q.** And the “Plant response rating, Oilseed Rape” value ([1]; 31 g ai/ha, scale 0 to 100)?
**A.** Its value is 95.

**Q.** And the “Oilseed Rape plant response rating” value ([1]; 62 g ai/ha)?
**A.** Its value is 95.

**Q.** What about the “Oilseed Rape plant response rating” value ([1]; 125 g ai/ha) of the same compound?
**A.** The value was 95.

**Q.** What about the “Plant response rating, Nutsedge, Yellow” value ([2]; 16 g ai/ha, scale of 0 to 100) of the same compound?
**A.** Its value is 10.

**Q.** What about the “Plant response rating, Nutsedge, Yellow” value ([2]; 31 g ai/ha, scale 0 to 100) of the same compound?
**A.** Its value is 10.

**Q.** And the “Nutsedge, Yellow plant response rating” value ([2]; 62 g ai/ha)?
**A.** The value was 20.

**Q.** And the “Nutsedge, Yellow plant response rating” value ([2]; 125 g ai/ha)?
**A.** The value was 10.

**Q.** What about the “Plant response rating, Barnyardgrass” value ([3]; 16 g ai/ha) of the same compound?
**A.** The value was 10.

**Q.** What about the “Plant response rating, Barnyardgrass” value ([3]; 31 g ai/ha) of the same compound?
**A.** Its value is 10.

**Q.** And the “Barnyardgrass plant response rating” value ([3]; 62 g ai/ha)?
**A.** The value was 10.

**Q.** What about the “Barnyardgrass plant response rating” value ([3]; 125 g ai/ha) of the same compound?
**A.** The value was 60.

**Q.** And the “Plant response rating, Blackgrass” value ([4]; 16 g ai/ha)?
**A.** Its value is 30.

**Q.** And the “Plant response rating, Blackgrass” value ([4]; 31 g ai/ha)?
**A.** The value was 35.

**Q.** And the “Blackgrass plant response rating” value ([4]; 62 g ai/ha)?
**A.** The value was 40.

**Q.** What about the “Blackgrass plant response rating” value ([4]; 125 g ai/ha) of the same compound?
**A.** The value was 45.

**Q.** What about the “Plant response rating, Crabgrass, Large” value ([5]; 16 g ai/ha, scale of 0 to 100) of the same compound?
**A.** Its value is 10.

**Q.** And the “Plant response rating, Crabgrass, Large” value ([5]; 31 g ai/ha, scale 0 to 100)?
**A.** The value was 30.

**Q.** What about the “Crabgrass, Large plant response rating” value ([5]; 62 g ai/ha) of the same compound?
**A.** The value was 30.

**Q.** And the “Crabgrass, Large plant response rating” value ([5]; 125 g ai/ha)?
**A.** Its value is 20.

**Q.** And the “Plant response rating, Kochia” value (kochia (Kochia scoparia) [6]; 16 g ai/ha, scale of 0 to 100)?
**A.** Its value is 80.

**Q.** What about the “Plant response rating, Kochia” value (kochia (Kochia scoparia) [6]; 31 g ai/ha, scale 0 to 100) of the same compound?
**A.** The value was 95.

**Q.** And the “Kochia plant response rating” value (kochia (Kochia scoparia) [6]; 62 g ai/ha)?
**A.** Its value is 95.

**Q.** And the “Kochia plant response rating” value (kochia (Kochia scoparia) [6]; 125 g ai/ha)?
**A.** Its value is 95.

**Q.** And the “Plant response rating, Galium” value ([7]; 16 g ai/ha, scale of 0 to 100)?
**A.** The value was 50.

**Q.** What about the “Plant response rating, Galium” value ([7]; 31 g ai/ha, scale 0 to 100) of the same compound?
**A.** Its value is 75.

**Q.** And the “Galium plant response rating” value ([7]; 62 g ai/ha)?
**A.** The value was 85.

**Q.** What about the “Galium plant response rating” value ([7]; 125 g ai/ha) of the same compound?
**A.** Its value is 90.

**Q.** And the “Plant response rating, Morningglory” value ([8]; 16 g ai/ha, scale of 0 to 100)?
**A.** Its value is 25.

**Q.** What about the “Plant response rating, Morningglory” value ([8]; 31 g ai/ha, scale 0 to 100) of the same compound?
**A.** The value was 40.

**Q.** What about the “Morningglory plant response rating” value ([8]; 62 g ai/ha) of the same compound?
**A.** Its value is 30.

**Q.** And the “Morningglory plant response rating” value ([8]; 125 g ai/ha)?
**A.** Its value is 75.

**Q.** What about the “Plant response rating, Wheat” value ([9]; 16 g ai/ha, scale of 0 to 100) of the same compound?
**A.** Its value is 5.

**Q.** What about the “Plant response rating, Wheat” value ([9]; 31 g ai/ha, scale 0 to 100) of the same compound?
**A.** The value was 10.

**Q.** What about the “Wheat plant response rating” value ([9]; 125 g ai/ha, scale 0 to 100 (0 no effect, 100 complete control)) of the same compound?
**A.** The value was 30.

**Q.** And the “Plant response rating, Corn” value (corn (Zea mays); 16 g ai/ha, scale of 0 to 100)?
**A.** Its value is 20.

**Q.** And the “Plant response rating, Corn” value (corn (Zea mays); 31 g ai/ha, scale 0 to 100)?
**A.** The value was 20.

**Q.** What about the “Corn plant response rating” value (corn (Zea mays); 62 g ai/ha) of the same compound?
**A.** Its value is 25.

**Q.** What about the “Corn plant response rating” value (corn (Zea mays); 125 g ai/ha) of the same compound?
**A.** The value was 25.

**Q.** And the “Plant response rating, Barnyardgrass” value [10]?
**A.** Its value is 35.

**Q.** What about the “Plant response rating, Pigweed” value [11, 17] of the same compound?
**A.** The value was 90.

**Q.** And the “Pigweed plant response rating” value [11, 18]?
**A.** Its value is 100.

**Q.** And the “Plant response rating, Barnyardgrass” value [12, 17]?
**A.** The value was 50.

**Q.** And the “Barnyardgrass plant response rating” value [12, 18]?
**A.** Its value is 100.

**Q.** And the “Plant response rating, Kochia” value (kochia (Kochia scoparia) [13]; [17])?
**A.** Its value is 70.

**Q.** What about the “Kochia plant response rating” value (kochia (Kochia scoparia) [13]; [18]) of the same compound?
**A.** The value was 80.

**Q.** And the “Plant response rating, Ragweed” value [14, 17]?
**A.** Its value is 0.

**Q.** And the “Ragweed plant response rating” value [14, 18]?
**A.** The value was 60.

**Q.** And the “Plant response rating, Foxtail, Giant” value [15, 17]?
**A.** Its value is 90.

**Q.** And the “Foxtail, Giant plant response rating” value [15, 18]?
**A.** Its value is 100.

**Q.** What about the “Plant response rating, Ryegrass, Italian” value [16, 17] of the same compound?
**A.** Its value is 0.

**Q.** What about the “Ryegrass, Italian plant response rating” value [16, 18] of the same compound?
**A.** Its value is 80.
